In US9428514B2, “Bromodomain inhibitors” (AbbVie Inc., priority 2013, dated 2016) one finds EC50 data, which are given here for 27 compounds.

This test relates to breast cancer cell line MX-1. In words: MX-1 cell line proliferation assay (3-day, Cell Titer Glo). It counts as cell-based. The following applies: Homo sapiens, MX1, MX-1 cells, 72 hours, read-out: Cellular proliferation: EC50. Here is the method:
The impact of compounds of the Examples on cancer cell proliferation was determined using the breast cancer cell line MX-1 (ATCC) in a 3-day proliferation assay. MX-1 cells were maintained in RPMI supplemented with 10% FBS at 37° C. and an atmosphere of 5% CO2. For compound testing, MX-1 cells were plated in 96-well black bottom plates at a density of 5000 cells/well in 90 μL of culture media and incubated at 37° overnight to allow cell adhesion and spreading. Compound dilution series were prepared in DMSO via a 3-fold serial dilution from 3 mM to […]. The DMSO dilution series were then diluted 1:100 in phosphate buffered saline, and 10 μL of the resulted solution were added to the appropriate wells of the MX-1 cell plate. The final compound concentrations in the wells were 3, 1, 0.3, 0.1, 0.03, 0.01, 0.003, 0.001, 0.0003, 0.0001, and 0.00003 μM.
Luminescence readings from the Cell Titer Glo assay were normalized to the DMSO treated cells and analyzed using the GraphPad Prism software with sigmoidal curve fitting to obtain EC50s. The minimum significant ratio (MSR) was determined to evaluate assay reproducibility (Eastwood et al., (2006) J Biomol Screen, 11: 253-261). The overall MSR was determined to be 2.1 and a moving MSR (last six run MSR overtime) has been <2. The EC50 values are reported in Table 1 for the indicated compounds.
In the case of `CCOc1cc(=O)n(C)cc1-c1cc(N(Cc2cccnc2)S(=O)(=O)CC)ccc1Oc1ccc(F)cc1F` [Example 91, N-[4-(2,4-difluorophenoxy)-3-(4-ethoxy-1-methyl-6-oxo-1,6-dihydropyridin-3-yl)phenyl]-N-(pyridin-3-ylmethyl)ethanesulfonamide], the EC50 stood at 505 nM. For `CCOc1cc(=O)n(C)cc1-c1cc(NCc2cccc(C)n2)ccc1Oc1ccc(F)cc1F` [Example 11, 5-[2-(2,4-difluorophenoxy)-5-{[(6-methylpyridin-2-yl)methyl]amino}phenyl]-4-ethoxy-1-methylpyridin-2(1H)-one], the EC50 came out at 884 nM. `CCOc1cc(=O)n(C)cc1-c1cc(N(C)C(=O)Cc2cc(F)ccc2Cl)ccc1Oc1ccc(F)cc1F` [Example 71, 2-(2-chloro-5-fluorophenyl)-N-[4-(2,4-difluorophenoxy)-3-(4-ethoxy-1-methyl-6-oxo-1,6-dihydropyridin-3-yl)phenyl]-N-methylacetamide]: the EC50 is above 1000 nM.

`CCOc1cc(=O)n(C)cc1-c1cc(N(Cc2ccccc2Cl)S(=O)(=O)CC)ccc1Oc1ccc(F)cc1F` [Example 74, N-(2-chlorobenzyl)-N-[4-(2,4-difluorophenoxy)-3-(4-ethoxy-1-methyl-6-oxo-1,6-dihydropyridin-3-yl)phenyl]ethanesulfonamide]: the EC50 is 464 nM.

As for `CCOc1cc(=O)n(C)cc1-c1cc(N(CCc2ccccc2)S(=O)(=O)Cc2ccccc2)ccc1Oc1ccc(F)cc1F` [Example 79, N-[4-(2,4-difluorophenoxy)-3-(4-ethoxy-1-methyl-6-oxo-1,6-dihydropyridin-3-yl)phenyl]-1-phenyl-N-(2-phenylethyl)methanesulfonamide], the EC50 is above 1000 nM. Turning to `CCOc1cc(=O)n(C)cc1-c1cc(NC(=O)Cc2ccc(-c3ccccc3)cc2)ccc1Oc1ccc(F)cc1F` [Example 42, 2-(biphenyl-4-yl)-N-[4-(2,4-difluorophenoxy)-3-(4-ethoxy-1-methyl-6-oxo-1,6-dihydropyridin-3-yl)phenyl]acetamide], the EC50 was 678 nM. In the case of `CCOc1cc(=O)n(C)cc1-c1cc(N(Cc2cnccn2)S(=O)(=O)Cc2ccccc2)ccc1Oc1ccc(F)cc1F` [Example 96, N-[4-(2,4-difluorophenoxy)-3-(4-ethoxy-1-methyl-6-oxo-1,6-dihydropyridin-3-yl)phenyl]-1-phenyl-N-(pyrazin-2-ylmethyl)methanesulfonamide], the EC50 is above 1000 nM. With `CCOc1cc(=O)n(C)cc1-c1cc(NCc2ccccc2C#N)ccc1Oc1ccc(F)cc1F` [Example 57, 2-({[4-(2,4-difluorophenoxy)-3-(4-ethoxy-1-methyl-6-oxo-1,6-dihydropyridin-3-yl)phenyl]amino}methyl)benzonitrile], the EC50 was 712 nM. With `CCOc1cc(=O)n(C)cc1-c1cc(N(Cc2cncnc2)S(=O)(=O)CC)ccc1Oc1ccc(F)cc1F` [Example 93, N-[4-(2,4-difluorophenoxy)-3-(4-ethoxy-1-methyl-6-oxo-1,6-dihydropyridin-3-yl)phenyl]-N-(pyrimidin-5-ylmethyl)ethanesulfonamide], the EC50 is above 1000 nM. For the compound `CCOc1cc(=O)n(C)cc1-c1cc(NC(=O)CCOc2ccccc2)ccc1Oc1ccc(F)cc1F` [Example 30, N-[4-(2,4-difluorophenoxy)-3-(4-ethoxy-1-methyl-6-oxo-1,6-dihydropyridin-3-yl)phenyl]-3-phenoxypropanamide], the EC50 is above 3000 nM. For `CCOc1cc(=O)n(C)cc1-c1cc(NC(=O)Cc2ccccc2OC)ccc1Oc1ccc(F)cc1F` [Example 46, N-[4-(2,4-difluorophenoxy)-3-(4-ethoxy-1-methyl-6-oxo-1,6-dihydropyridin-3-yl)phenyl]-2-(2-methoxyphenyl)acetamide], the EC50 was 449 nM. For `CCOc1cc(=O)n(C)cc1-c1cc(NC(=O)Cc2noc3ccccc23)ccc1Oc1ccc(F)cc1F` [Example 36, 2-(1,2-benzoxazol-3-yl)-N-[4-(2,4-difluorophenoxy)-3-(4-ethoxy-1-methyl-6-oxo-1,6-dihydropyridin-3-yl)phenyl]acetamide], the EC50 came to 476 nM. With `CCOc1cc(=O)n(C)cc1-c1cc(NC(=O)Cc2ccc(C)nc2)ccc1Oc1ccc(F)cc1F` [Example 5, N-[4-(2,4-difluorophenoxy)-3-(4-ethoxy-1-methyl-6-oxo-1,6-dihydropyridin-3-yl)phenyl]-2-(6-methylpyridin-3-yl)acetamide], the EC50 is 681 nM. As for `CCOc1cc(=O)n(C)cc1-c1cc(NC(=O)C(C)c2cc(F)ccc2Cl)ccc1Oc1ccc(F)cc1F` (stereo not drawn) [Example 70, 2-(2-chloro-5-fluorophenyl)-N-[4-(2,4-difluorophenoxy)-3-(4-ethoxy-1-methyl-6-oxo-1,6-dihydropyridin-3-yl)phenyl]propanamide], the EC50 was above 1000 nM. With `CCOc1cc(=O)n(C)cc1-c1cc(N(Cc2ccccc2)S(=O)(=O)CC)ccc1Oc1ccc(F)cc1F` [Example 73, N-benzyl-N-[4-(2,4-difluorophenoxy)-3-(4-ethoxy-1-methyl-6-oxo-1,6-dihydropyridin-3-yl)phenyl]ethanesulfonamide] the figure was above 1000 nM. In the case of `CCOc1cc(=O)n(C)cc1-c1cc(NC(=O)Cn2ccc(-c3ccccc3F)n2)ccc1Oc1ccc(F)cc1F` [Example 8, N-[4-(2,4-difluorophenoxy)-3-(4-ethoxy-1-methyl-6-oxo-1,6-dihydropyridin-3-yl)phenyl]-2-[3-(2-fluorophenyl)-1H-pyrazol-1-yl]acetamide], the EC50 is above 3000 nM. Regarding `CCOc1cc(=O)n(C)cc1-c1cc(N(C[C@H]2COCCO2)S(=O)(=O)CC)ccc1Oc1ccc(F)cc1F` [Example 102, N-[4-(2,4-difluorophenoxy)-3-(4-ethoxy-1-methyl-6-oxo-1,6-dihydropyridin-3-yl)phenyl]-N-[(2S)-1,4-dioxan-2-ylmethyl]ethanesulfonamide], the EC50 came to 710 nM. In the case of `CCOc1cc(=O)n(C)cc1-c1cc(N(CC2CC2)S(=O)(=O)CC)ccc1Oc1ccc(F)cc1F` [Example 72, N-(cyclopropylmethyl)-N-[4-(2,4-difluorophenoxy)-3-(4-ethoxy-1-methyl-6-oxo-1,6-dihydropyridin-3-yl)phenyl]ethanesulfonamide], the EC50 is 233 nM. As to `CCOc1cc(=O)n(C)cc1-c1cc(N(CCc2ccccc2)S(=O)(=O)CC)ccc1Oc1ccc(F)cc1F` [Example 75, N-[4-(2,4-difluorophenoxy)-3-(4-ethoxy-1-methyl-6-oxo-1,6-dihydropyridin-3-yl)phenyl]-N-(2-phenylethyl)ethanesulfonamide], the EC50 is 614 nM.

Consider `CCOc1cc(=O)n(C)cc1-c1cc(NCc2ccnn2C)ccc1Oc1ccc(F)cc1F` [Example 13, 5-[2-(2,4-difluorophenoxy)-5-{[(1-methyl-1H-pyrazol-5-yl)methyl]amino}phenyl]-4-ethoxy-1-methylpyridin-2(1H)-one], for which the EC50 worked out at 1480 nM. Take `CCOc1cc(=O)n(C)cc1-c1cc(NC(=O)Nc2ccc(C)cc2C)ccc1Oc1ccc(F)cc1F` [Example 16, 1-[4-(2,4-difluorophenoxy)-3-(4-ethoxy-1-methyl-6-oxo-1,6-dihydropyridin-3-yl)phenyl]-3-(2,4-dimethylphenyl)urea]: the EC50 is above 3000 nM. As for `CCOc1cc(=O)n(C)cc1-c1cc(NC(=O)CCc2ccccc2)ccc1Oc1ccc(F)cc1F` [Example 41, N-[4-(2,4-difluorophenoxy)-3-(4-ethoxy-1-methyl-6-oxo-1,6-dihydropyridin-3-yl)phenyl]-3-phenylpropanamide], the EC50 was found to be 398 nM. For `CCOc1cc(=O)n(C)cc1-c1cc(NCCCC(=O)OC)ccc1Oc1ccc(F)cc1F` [Example 14, methyl 4-{[4-(2,4-difluorophenoxy)-3-(4-ethoxy-1-methyl-6-oxo-1,6-dihydropyridin-3-yl)phenyl]amino}butanoate], the EC50 is 111 nM. Turning to `CCOc1cc(=O)n(C)cc1-c1cc(NC(=O)Cc2cc(Cl)ccc2F)ccc1Oc1ccc(F)cc1F` [Example 82, 2-(5-chloro-2-fluorophenyl)-N-[4-(2,4-difluorophenoxy)-3-(4-ethoxy-1-methyl-6-oxo-1,6-dihydropyridin-3-yl)phenyl]acetamide], the EC50 was above 1000 nM.

Take `CCOc1cc(=O)n(C)cc1-c1cc(N(Cc2cnn(C)c2)S(=O)(=O)CC)ccc1Oc1ccc(F)cc1F` [Example 97, N-[4-(2,4-difluorophenoxy)-3-(4-ethoxy-1-methyl-6-oxo-1,6-dihydropyridin-3-yl)phenyl]-N-[(1-methyl-1H-pyrazol-4-yl)methyl]ethanesulfonamide]: the EC50 was determined as 550 nM. With `CCOc1cc(=O)n(C)cc1-c1cc(NC(=O)Cc2ccc(Cl)cc2F)ccc1Oc1ccc(F)cc1F` [Example 3, 2-(4-chloro-2-fluorophenyl)-N-[4-(2,4-difluorophenoxy)-3-(4-ethoxy-1-methyl-6-oxo-1,6-dihydropyridin-3-yl)phenyl]acetamide] the figure was 433 nM; with `CCOc1cc(=O)n(C)cc1-c1cc(N(Cc2nccs2)S(=O)(=O)Cc2ccccc2)ccc1Oc1ccc(F)cc1F` [Example 90, N-[4-(2,4-difluorophenoxy)-3-(4-ethoxy-1-methyl-6-oxo-1,6-dihydropyridin-3-yl)phenyl]-1-phenyl-N-(1,3-thiazol-2-ylmethyl)methanesulfonamide], above 1000 nM.
